Assays:
[1] = tested on: fatty liver model animal induced by diabetic db/db mice; test: Test using fatty liver model animal induced by diabetic db/db mice; type: in vivo, diabetic db/db mice (C57BLKS/J-leprdb/leprdb); conditions: daily single dose of 60 mg/kg
Protocol: As subject animals, 6-week-old male diabetic db/db mice (C57BLKS/J-leprdb/leprdb) were purchased from Jackson Laboratory (Bar Harbor, Me., USA). The mice were kept under standard conditions. When the mice became 8 weeks old after being bred for about 2 weeks, test substances were administered to the mice. For 12 weeks after the mice became 8 weeks old, test substances were separately administered to a vehicle administration group and a 3-phenyl-4-normalpropyl-1-(pyridin-2-yl)-1H-pyrazol-5-ol hydrochloride administration group. A normal control group was used as a negative control. After completion of the test, the animals were anesthetized, liver tissues were taken out from respective animals and blood for inspection was collected. The liver tissues were weighed and imaged. The liver tissues were immobilized in 10% buffered neutral formalin. The immobilized tissues were cut to a predetermined thickness, subjected to a general tissue treatment process, embedded in paraffin and produced into tissue sections with a size of 4 to 5 μm, and the tissue sections were subjected to Hematoxylin & Eosin (H&E stain) as a general staining method and were histopatho-logically observed. In addition to H&E staining, Oil red-O staining was conducted in order to observe lipids induced by formation of fatty liver, levels of produced lipids were measured and an effect of drug administration on reduction of lipids was predicted. The liver tissues were stained with an Oil red 0 working solution, to evaluate levels of produced lipids. Blood was collected and centrifuged at 3000 rpm at 4° C. for 10 min. The serum of the upper layer was taken and the levels of triglyceride (TG) and LDL-cholesterol (LDL-C) were measured using an automatic blood biochemical analyzer (AU480, Beckman 30-18 Coulter, USA) and the results were analyzed. A ratio of liver weight to body weight was measured and the amount of triglyceride in liver tissues was measured to expect effects of drug administration on reduction of relative liver weight and triglyceride. The liver tissues were ground with a homogenizer, chloroform and methanol (2:1) were added thereto, the resulting mixture was centrifuged at 3,000 rpm and at 4° C. for 10 minutes and the organic solvent layer containing lipids was separated. The organic solvent in the separated lipid layer was removed in the dryer at 50° C. for 12 hours. The lipid-only tubes were immersed in 100% EtOH, and then suspended in a lipid-free tube and then assayed with a kit reagent for measuring triglyceride (AM157S-K, Asan, Korea).

[2] = tested on: fatty liver model animal induced by MCD (methionine/choline deficient) diet; test: Test using fatty liver model animal induced by MCD (methionine/choline deficient) diet; type: in vivo, Sprague Dawley (SD) rats; conditions: MCD diet rats, daily single dose of 60 mg/kg, compared to the vehicle group
Protocol: As subject animals, 6-week-old male Sprague Dawley (SD) rats were purchased. All rats were kept under standard conditions. When the rats became 12 weeks old after being bred for about 6 weeks, test substances were administered to the rats. Test groups were set based on ALT level in blood collected at 5 weeks. For 5 weeks after the rats became 12 weeks old, test substances were separately administered to a vehicle administration group and a 3-phenyl-4-n-propyl-1-(pyridin-2-yl)-1H-pyrazol-5-ol hydrochloride administration group. A normal control group was used as a negative control. Blood was collected one day before the start of the experiment (from the jugular vein), and blood samples were collected on the 3 weeks, 5 weeks, 7 weeks, 9 weeks and on the day of the autopsy (24 hours after the fasting, total six times). In addition, plasma of each blood sample collected on the 5 weeks, 7 weeks, 9 weeks and on the day of the autopsy were analyzed. After completion of the test, the animals were anesthetized, liver tissues were taken out from respective animals and blood for inspection was collected. The liver tissues were weighed and imaged. The liver tissues were immobilized in 10% buffered neutral formalin. […] In addition to H&E staining, Oil red-O staining was conducted in order to observe lipids induced by formation of fatty liver, levels of produced lipids were measured and an effect of drug administration on reduction of lipids was predicted. […] The serum of the upper layer was taken and the level of alanine transaminase (ALT) was measured using an automatic blood biochemical analyzer (AU480, Beckman 30-18 Coulter, USA) and the results were analyzed. A ratio of liver weight to body weight was measured and the amount of triglyceride in liver tissues was measured to expect effects of drug administration on reduction of relative liver weight and triglyceride. […] Results are analyzed.

[3] = tested on: fatty liver model animal induced by high fat diet; test: Test using fatty liver model animal induced by high fat diet; type: in vivo; conditions: high fat diet rats, daily single dose of 60 mg/kg, compared to the vehicle group and the obeticholic acid group
Protocol: As subject animals, 6-week-old rats were purchased. All rats were kept under standard conditions. When the rats became 12 weeks old after being bred for about 6 weeks, test substances were administered to the rats. Test groups were set based on ALT level in blood collected at 5 weeks. For 5 weeks after the rats reached 12 weeks old, test substances were separately administered to a vehicle administration group, an obeticholic acid administration group as a positive control group, and a 3-phenyl-4-normalpropyl-1-(pyridin-2-yl)-1H-pyrazol-5-ol hydrochloride administration group. Blood was collected one day before the start of the experiment (from jugular vein), and blood samples were collected on the 5 weeks, 8 weeks and on the day of the autopsy (24 hours after the fasting, total 4 times). In addition, plasma of each blood sample collected on the 5th week, 8th week and the day of the autopsy were analyzed. After completion of the test, the animals were anesthetized, liver tissues were taken out from respective animals and blood for inspection was collected. The liver tissues were weighed and imaged. The liver tissues were immobilized in 10% buffered neutral formalin. The immobilized tissues were cut to a predetermined thickness, subjected to a general tissue treatment process, embedded in paraffin and produced into tissue sections with a size of 4 to 5 μm, and the tissue sections were subjected to Hematoxylin & Eosin (H&E stain) as a general staining method and were histopatho-logically observed. In addition to H&E staining, Oil red-o staining was conducted in order to observe lipids induced by formation of fatty liver, levels of produced lipids were measured and an effect of drug administration on reduction of lipids was predicted. The liver tissues were stained with an Oil red o working solution, to evaluate levels of produced lipids. Blood was collected and centrifuged at 3000 rpm at 4° C. for 10 min. The serum of the upper layer was taken and the levels of alkaline phosphate (ALP), aspartate transminase (AST) and alanine transaminase (ALT) were measured using an automatic blood biochemical analyzer (AU480, Beckman 30-18 Coulter, USA) and the results were analyzed. A ratio of liver weight to body weight was measured and the amount of triglyceride in liver tissues was measured to expect effects of drug administration on reduction of relative liver weight and triglyceride. The liver tissues were ground with a homogenizer, chloroform and methanol (2:1) were added thereto, the resulting mixture was centrifuged at 3,000 rpm and at 4° C. for 10 minutes and the organic solvent layer containing lipids was separated. The organic solvent in the separated lipid layer was removed in the dryer at 50° C. for 12 hours. […]

[4] = compared to the vehicle group, FIG. 6C

CCCc1c(-c2ccccc2)nn(-c2ccccn2)c1O.Cl [compound 1, 3-phenyl-4-n-propyl-1-(pyridin-2-yl)-1H-pyrazol-5-ol hydrochloride]
level of LDL in blood ([1]; FIG. 6A and 6B): decreasing levels | level of LDL in liver tissues ([1]; FIG. 6A and 6B): decreasing levels | level of TG in blood ([1]; FIG. 6A and 6B): decreasing levels | level of TG in liver tissues ([1]; FIG. 6A and 6B): decreasing levels | liver tissue damage and hepatic fibrosis (TGF-β and Type IV collagen staining in liver tissues) ([1]; compared to the vehicle group, FIG. 5): significantly reduced | mRNA expression of MCP-1 in liver tissues [1, 4]: considerably reduced | mRNA expression of PAI-1 in liver tissues [1, 4]: considerably reduced | mRNA expression of TGF-β in liver tissues [1, 4]: considerably reduced | mRNA expression of collagen I in liver tissues [1, 4]: considerably reduced | mRNA expression of collagen IV in liver tissues [1, 4]: considerably reduced | level of ALT in the blood ([2]; FIG. 1): significantly reduced | inflammation in liver tissues (staining of α-SMA, IL-1β and TNF-α) ([2]; FIG. 2): considerably reduced | liver tissue damage and hepatic fibrosis (TGF-β, H&E staining, Oil red O staining) ([2]; FIG. 3): reduced | relative liver weight ([3]; FIG. 4A): significantly reduced | level of ALP in blood ([3]; FIG. 4B-4D): considerably decreased | level of ALT in blood ([3]; FIG. 4B-4D): considerably decreased | level of AST in blood ([3]; FIG. 4B-4D): considerably decreased

— patent US10966969B2, “Therapeutic agent for liver diseases” (APTABIO THERAPEUTICS INC., priority 2017, dated 2021)
